Some test systems named below: A498 renal; HOP-62 NSCLC; K-562 leukemia; M14 melanoma; MCF7 breast; MDA-MB-231 breast; OVCAR-8 ovarian; RPMI-8226 leukemia; SF-268 CNS; SK-OV-3 ovarian.
Common to all, as to assay: inhibition of tumour cell growth, NCI panel, 48 h

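Cultured in 96-well plates, cells were exposed to test compound for 48 hours across five concentrations. GI50 = concentration required for 50% inhibition of growth. TGI: concentration producing complete growth inhibition.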

Our source for the GI50 and TGI values is PubChem BioAssay (NCI).

Consider `CCOc1ccc(/C=N/Nc2cc(C)nc3ccc(Cl)cc23)cc1`, for which the GI50 is 1.7 µM with A498 renal; 2.31 µM in the experiment with HOP-62 NSCLC; 1.36 µM in the experiment on K-562 leukemia; 1.53 µM in the experiment on M14 melanoma; 1.67 µM in the experiment with MCF7 breast; 1.83 µM in the experiment on MDA-MB-231 breast. Further, the GI50 in the experiment on OVCAR-8 ovarian is 2.34 µM; in the experiment with RPMI-8226 leukemia it was 1.94 µM; with SF-268 CNS, 2.05 µM; in the experiment with SK-OV-3 ovarian, 2.86 µM. The TGI came to 3.45 µM in the experiment on A498 renal; 6.53 µM in the experiment with HOP-62 NSCLC; 2.98 µM in the experiment with K-562 leukemia; 2.91 µM in the experiment on M14 melanoma; 3.32 µM in the experiment on MCF7 breast; 3.38 µM in the experiment on MDA-MB-231 breast. Besides, the TGI with OVCAR-8 ovarian is 5.19 µM; in the experiment with RPMI-8226 leukemia, 4.32 µM; with SF-268 CNS, 3.9 µM; in the experiment on SK-OV-3 ovarian, 7.29 µM.
As for `Cc1ccccc1NC(=O)N/C(N)=N/c1nc2ccccc2s1`, the GI50 in the experiment with A498 renal was 0.0261 µM; in the experiment on HOP-62 NSCLC, 0.11 µM; with K-562 leukemia it was 0.0327 µM; in the experiment with M14 melanoma, 0.0348 µM; in the experiment on MCF7 breast, 0.0359 µM; in the experiment with MDA-MB-231 breast, 0.892 µM. Further, the GI50 with OVCAR-8 ovarian is 0.0979 µM; in the experiment on RPMI-8226 leukemia, 0.0402 µM; with SF-268 CNS, 1.5 µM; in the experiment with SK-OV-3 ovarian, 0.416 µM. In addition, the TGI with A498 renal is 0.142 µM; in the experiment on HOP-62 NSCLC it was over 100 µM; in the experiment with K-562 leukemia, over 100 µM; with M14 melanoma it was 1.41 µM; with MCF7 breast it was over 100 µM; in the experiment on MDA-MB-231 breast it was over 100 µM. Besides, the TGI with OVCAR-8 ovarian is over 43.2 µM; with RPMI-8226 leukemia, 2.46 µM; with SF-268 CNS it was over 100 µM; in the experiment on SK-OV-3 ovarian it was over 100 µM.
As for `COC(=O)C1=C(C(=O)Nc2cccnc2)C2OC1(C(Cc1ccccc1)Oc1ccccc1)C1OC21` (stereo not given), the GI50 with A498 renal is 11.2 µM; in the experiment on HOP-62 NSCLC, 13.2 µM; with K-562 leukemia, 2.03 µM; with M14 melanoma, 2.62 µM; in the experiment on MCF7 breast it was 1.92 µM; in the experiment with MDA-MB-231 breast, 2.77 µM. Moreover, the GI50 in the experiment on OVCAR-8 ovarian is 7.94 µM; in the experiment on RPMI-8226 leukemia, 2.14 µM; with SF-268 CNS it was 13 µM; with SK-OV-3 ovarian, 18.3 µM. Also, the TGI with A498 renal worked out at 23.8 µM; with HOP-62 NSCLC, 26.1 µM; with K-562 leukemia, 6.68 µM; in the experiment on M14 melanoma it was 7.45 µM; in the experiment with MCF7 breast, 5.33 µM; in the experiment with MDA-MB-231 breast, 6.52 µM. In addition, the TGI came out at 22.8 µM in the experiment on OVCAR-8 ovarian, 6 µM with RPMI-8226 leukemia, 27.9 µM in the experiment with SF-268 CNS and 48.2 µM with SK-OV-3 ovarian.
For `Clc1ccc(-c2nc(-c3c[nH]c4ncccc34)cs2)cc1`, the GI50 with A498 renal, in the experiment on HOP-62 NSCLC, in the experiment on K-562 leukemia, with M14 melanoma, in the experiment with MCF7 breast and with MDA-MB-231 breast was over 100 µM throughout. In addition, the GI50 with OVCAR-8 ovarian, with RPMI-8226 leukemia, in the experiment with SF-268 CNS and in the experiment on SK-OV-3 ovarian was over 100 µM in each case. Further, the TGI with A498 renal, with HOP-62 NSCLC, with K-562 leukemia, in the experiment with M14 melanoma, in the experiment with MCF7 breast and in the experiment on MDA-MB-231 breast was over 100 µM in each case. For the same molecule, the TGI with OVCAR-8 ovarian, in the experiment on RPMI-8226 leukemia, in the experiment with SF-268 CNS and in the experiment with SK-OV-3 ovarian was over 100 µM throughout.
On to `S=c1cn[nH]c2ccc(Br)cc12`, for which the TGI in the experiment on A498 renal, with HOP-62 NSCLC, with K-562 leukemia, in the experiment on M14 melanoma, in the experiment on MCF7 breast and in the experiment on MDA-MB-231 breast was over 100 µM throughout. The TGI with OVCAR-8 ovarian, in the experiment with RPMI-8226 leukemia, with SF-268 CNS and with SK-OV-3 ovarian was over 100 µM each time.
Take `NCC(=O)Nc1ccc(-n2nc(C(F)(F)F)cc2-c2ccc3c(ccc4ccccc43)c2)cc1`: the GI50 in the experiment on A498 renal was 1.86 µM; in the experiment on HOP-62 NSCLC, 1.32 µM; in the experiment with K-562 leukemia, 0.472 µM; in the experiment with M14 melanoma it was 1.61 µM; in the experiment with MCF7 breast, 0.578 µM; in the experiment on MDA-MB-231 breast, 1.35 µM. The GI50 with OVCAR-8 ovarian was 0.929 µM; in the experiment on RPMI-8226 leukemia, 1.29 µM; in the experiment with SF-268 CNS it was 1.13 µM; in the experiment with SK-OV-3 ovarian, 1.27 µM. The TGI with A498 renal was determined as 3.84 µM; in the experiment with HOP-62 NSCLC it was 2.74 µM; in the experiment on K-562 leukemia it was 3.38 µM; in the experiment on M14 melanoma, 3.24 µM; in the experiment with MCF7 breast it was 2.06 µM; in the experiment with MDA-MB-231 breast, 2.87 µM. For the same molecule, the TGI turned out to be 3.15 µM with OVCAR-8 ovarian, 4.08 µM with RPMI-8226 leukemia, 2.75 µM with SF-268 CNS and 2.54 µM in the experiment on SK-OV-3 ovarian.
In the case of `Nc1nn(C(=O)Nc2ccc(Cc3ccccc3)cc2)c2ccc(Cl)cc12`, the GI50 in the experiment with A498 renal is 15.9 µM; with HOP-62 NSCLC it was 1.33 µM; in the experiment on K-562 leukemia it was 0.0343 µM; in the experiment on M14 melanoma, 0.0666 µM; in the experiment on MCF7 breast, 0.422 µM; in the experiment on MDA-MB-231 breast it was 9.48 µM. The GI50 is 14.8 µM in the experiment with OVCAR-8 ovarian, 5.21 µM in the experiment on RPMI-8226 leukemia, 13.2 µM in the experiment on SF-268 CNS and 17.9 µM in the experiment with SK-OV-3 ovarian. The TGI with A498 renal is 52.8 µM; in the experiment on HOP-62 NSCLC it was 14.8 µM; in the experiment on K-562 leukemia, 16.9 µM; in the experiment on M14 melanoma it was 11.7 µM; in the experiment with MCF7 breast it was 18 µM; with MDA-MB-231 breast, 50.2 µM. The TGI in the experiment with OVCAR-8 ovarian is over 100 µM; in the experiment on RPMI-8226 leukemia it was 47.7 µM; in the experiment with SF-268 CNS it was 52.3 µM; with SK-OV-3 ovarian, 52 µM.
As to `CCS(=O)(=O)c1ccc(OC)c(Nc2ncc(-c3cccc(-c4ccccc4F)c3)o2)c1`, the GI50 is 1.07 µM in the experiment with A498 renal; over 19.9 µM with HOP-62 NSCLC; 5.75 µM with K-562 leukemia; over 25 µM in the experiment with M14 melanoma; over 21 µM in the experiment on MCF7 breast; 14.1 µM in the experiment with MDA-MB-231 breast. Besides, the GI50 is over 25 µM with OVCAR-8 ovarian, 23.9 µM in the experiment on RPMI-8226 leukemia, 15.1 µM in the experiment on SF-268 CNS and 5.1 µM in the experiment on SK-OV-3 ovarian. In addition, the TGI with A498 renal is 7.54 µM; in the experiment on HOP-62 NSCLC, over 25 µM; with K-562 leukemia, over 25 µM; in the experiment with M14 melanoma it was over 25 µM; in the experiment on MCF7 breast, over 25 µM; in the experiment on MDA-MB-231 breast, over 25 µM. Also, the TGI in the experiment on OVCAR-8 ovarian was over 25 µM; in the experiment with RPMI-8226 leukemia, over 25 µM; in the experiment on SF-268 CNS, over 25 µM; with SK-OV-3 ovarian, 14.3 µM.
